Test results as given in publication PMC8131842, “Therapeutic Potential of Vasoactive Intestinal Peptide and its Derivative Stearyl-Norleucine-VIP in Inflammation-Induced Osteolysis” (Frontiers in Pharmacology, 2021).

Columns and labels:
[1] = system: Primary murine macrophages/preosteoclasts; experiment: MTT viability assay; format: cell-based, mouse; conditions: 10^-6 M, 20 ng/ml M-CSF, 1, 3 and 5 days of treatment, N=5
Procedure: MTT assay. For proliferation assay, macrophages were plated (4000 cells/well) into 96-well plate with standard medium supplemented with 20 ng of M-CSF. Cells were treated as indicated with either TiP, SNV, VIP (10^−6 M) or vehicle at first day of incubation. Cells viability was determined using dimethylthiazol-diphenyl-tetrazolium-bromide (MTT) after 1, 3 or 5 days. MTT was added to a final concentration of 5 mg/ml and incubated for 4 h at 37°C. After complete solubilization of the die in DMSO, plates were read at 570 nm in a colorimetric plate reader.
FIGURE 4 VIP and SNV alleviate the osteoclastogenic effect of TiP-induced inflammation. (A) Primary BMDM were exposed to TiP and RNA was collected after 24 h. mRNA expression are presented as Mean±SD fold change versus Control. * p<0.05 vs. Control. (B-D) Primary murine preosteoclasts were cultured in 20 ng/ml M-CSF and 50 ng/ml RANKL for 48 h. Conditioned medium from macrophages (Control) and macrophages exposed to Ti particles (Ti, as in A) was then added together with 10^-6M of VIP or SNV (or saline) for 48 h before TRAP staining. Data are Mean±SD for osteoclast % surface area (B) and number per well (C). (D) Representative images all acquired at a 4x original magnification. The scale bar for all images is in the upper left panel. n=8, #p<0.05 vs. Control; *p<0.05 vs. Ti, ANOVA. […]

[2] = matrix not given, ref Gozes et al., 1994, 1996; cited from earlier work
From the text: VIP derivatives and conjugates were designed to include a lipophilic moiety or a shortened VIP chain ([Gozes and Fridkin, 1992]; [Gozes et al., 1994]; [Gozes et al., 1995]; [Gozes et al., 1996]; [Gozes et al., 1999]). Stearyl-norleucine-VIP (Stearyl-Nle^17VIP, SNV) is a lipophilic compound consisting of a VIP molecule with an N-terminal attachment of stearic acid to increase cell and tissue bioavailability and an exchange of the oxidation-vulnerable methionine at position 17 with the stable norleucine.

Guinea pigs = experiment: Study 003 skin sensitization: adjuvant and patch test; format: in vivo, guinea pig; conditions: daily applications for 3 days, SNV 7 mg/animal (1000X)
Procedure: Toxicology. We performed toxicology studies for SNV that consisted of acute subcutaneous, intravenous and oral toxicity in rats, acute dermal toxicity in rabbits, skin sensitization using adjuvant and patch test in guinea pigs, and single and repeated (for 13 weeks) dose toxicity studies in rats. The latter was a 90-days repeated dose toxicity study, consisting of SNV once a day at three different doses to the penis and vagina of male and female rats, respectively. The compound was tested for the treatment of erectile dysfunction. The active dose (7 µg SNV) was chosen as the lowest dose for the study. The highest dosage group in the repeated dose toxicity study received 3,500 µg ([Gozes et al., 1994]). For study 001 (parts 1 through 3), the 1× dose consisted of 0.5 mg SNV dissolved in 7.1 ml vehicle (3.55 ml 10% Sefsol [glycerin monocaprylate] + 3.55 ml isopropanol) and 100µl/animal were administered; the 1000X dose consisted of 91 mg SNV dissolved in 1.3 ml vehicle (0.65 ml 10% Sefsol +0.65 ml isopropanol) and 100µl/animal were administered. For studies 002 through 004, the indicated doses of SNV (Table 1) were dissolved in 0.25 ml 10% Sefsol +0.25 ml 40% isopropanol (vehicle). The methodology for each of the toxicology studies is detailed in Table 1.

SMILES | Viability of the cells (MTT, optical density) [1] | Half-life [2] [s] | Mortality (Guinea pigs; adjuvant and patch test) | Skin reactions (Guinea pigs; intradermal Freund's complete adjuvant and patch application, 3 males + 3 females per group)
CC[C@H](C)[C@H](NC(=O)[C@H](CO)NC(=O)[C@H](CC(N)=O)NC(=O)[C@H](CC(C)C)NC(=O)[C@H](Cc1ccc(O)cc1)NC(=O)[C@H](CCCCN)NC(=O)[C@H](CCCCN)NC(=O)[C@@H](NC(=O)[C@H](C)NC(=O)[C@H](CCSC)NC(=O)[C@H](CCC(N)=O)NC(=O)[C@H](CCCCN)NC(=O)[C@H](CCCN=C(N)N)NC(=O)[C@H](CC(C)C)NC(=O)[C@H](CCCN=C(N)N)NC(=O)[C@@H](NC(=O)[C@H](Cc1ccc(O)cc1)NC(=O)[C@H](CC(N)=O)NC(=O)[C@H](CC(=O)O)NC(=O)[C@@H](NC(=O)[C@H](Cc1ccccc1)NC(=O)[C@@H](NC(=O)[C@H](C)NC(=O)[C@H](CC(=O)O)NC(=O)[C@H](CO)NC(=O)[C@@H](N)Cc1c[nH]cn1)C(C)C)[C@@H](C)O)[C@@H](C)O)C(C)C)C(=O)N[C@@H](CC(C)C)C(=O)N[C@@H](CC(N)=O)C(N)=O [VIP, Vasoactive intestinal peptide] | neither VIP nor SNV affected the viability | ~30 |  | 
O=[N+]([O-])c1ccc(Cl)c([N+](=O)[O-])c1 [1%-chloro-2,4-dinitrobenzene, reference compound] |  |  | None | severe erythema, edema and necrosis
